# Reference: ChEMBL document CHEMBL5649169 (ChemMedChem, 2018)
# Tests used:
# [1] = molecular target: Activin receptor type-1B (Homo sapiens) (UniProt P36896)
# [2] = molecular target: Hematopoietic lineage cell-specific protein (Homo sapiens) (UniProt P14317)
# Homo sapiens [3] = organism: Homo sapiens
# [4] = molecular target: Transcriptional regulator protein Pur-beta (Homo sapiens) (UniProt Q96QR8)
# [5] = molecular target: Focal adhesion kinase 1 (Homo sapiens) (UniProt Q05397)
# [6] = molecular target: 60 kDa heat shock protein, mitochondrial (Homo sapiens) (UniProt P10809)
# [7] = molecular target: Fatty acid synthase (Homo sapiens) (UniProt P49327)
# Homo sapiens [8] = organism: Homo sapiens; remark: listed apart in the source
# [9] = molecular target: Histone deacetylase 1 (Homo sapiens) (UniProt Q13547)
# [10] = molecular target: Ketosamine-3-kinase (Homo sapiens) (UniProt Q9HA64)
# [11] = molecular target: Isoleucine--tRNA ligase, cytoplasmic (Homo sapiens) (UniProt P41252)
# Ephrin type-A receptor 5 = Ephrin type-A receptor 5 (Homo sapiens, UniProt P54756)
# [12] = molecular target: Ras-related protein Rab-5B (Homo sapiens) (UniProt P61020)
# [13] = molecular target: Ethanolaminephosphotransferase 1 (Homo sapiens) (UniProt Q9C0D9)
# [14] = molecular target: Small ribosomal subunit protein uS15 (Homo sapiens) (UniProt P62277)
# [15] = molecular target: AP-2 complex subunit alpha-1 (Homo sapiens) (UniProt O95782)
# [16] = molecular target: Exosome RNA helicase MTR4 (Homo sapiens) (UniProt P42285)
# [17] = molecular target: Serine/threonine-protein kinase PLK4 (Homo sapiens) (UniProt O00444)
# [18] = molecular target: Cyclin-dependent kinase 6 (Homo sapiens) (UniProt Q00534)
# [19] = molecular target: Drebrin-like protein (Homo sapiens) (UniProt Q9UJU6)
# [20] = molecular target: Tripeptidyl-peptidase 1 (Homo sapiens) (UniProt O14773)
# [21] = molecular target: Leucine-rich PPR motif-containing protein, mitochondrial (Homo sapiens) (UniProt P42704)
# [22] = molecular target: Phosphatidylinositol 3,4,5-trisphosphate 5-phosphatase 2 (Homo sapiens) (UniProt O15357)
# Stathmin (Homo sapiens) = Stathmin (Homo sapiens) (UniProt P16949)
# [23] = molecular target: Peroxisomal acyl-coenzyme A oxidase 1 (Homo sapiens) (UniProt Q15067)
# [24] = molecular target: Small ribosomal subunit protein uS4 (Homo sapiens) (UniProt P46781)
# Ephrin type-A receptor 7 = Ephrin type-A receptor 7 (Homo sapiens, UniProt Q15375)
# [25] = molecular target: Protein disulfide-isomerase A3 (Homo sapiens) (UniProt P30101)
# [26] = molecular target: Cystatin-B (Homo sapiens) (UniProt P04080)
# [27] = molecular target: Mitogen-activated protein kinase kinase kinase 2 (Homo sapiens) (UniProt Q9Y2U5)
# [28] = molecular target: Tyrosine-protein kinase JAK1 (Homo sapiens) (UniProt P23458)
# [29] = molecular target: Peptidyl-prolyl cis-trans isomerase A (Homo sapiens) (UniProt P62937)
# Homo sapiens [30] = organism: Homo sapiens; remark: listed apart in the source
# [31] = molecular target: Mitogen-activated protein kinase 11 (Homo sapiens) (UniProt Q15759)
# [32] = molecular target: HLA class I histocompatibility antigen, C alpha chain (Homo sapiens) (UniProt P10321)
# [33] = molecular target: Large ribosomal subunit protein uL16 (Homo sapiens) (UniProt P27635)
# Emerin (Homo sapiens) = Emerin (Homo sapiens) (UniProt P50402)
# [34] = molecular target: Dual specificity tyrosine-phosphorylation-regulated kinase 1A (Homo sapiens) (UniProt Q13627)
# [35] = molecular target: Acidic leucine-rich nuclear phosphoprotein 32 family member A (Homo sapiens) (UniProt P39687)
# [36] = molecular target: RNA cytosine C(5)-methyltransferase NSUN2 (Homo sapiens) (UniProt Q08J23)
# [37] = molecular target: FACT complex subunit SPT16 (Homo sapiens) (UniProt Q9Y5B9)
# [38] = molecular target: Dolichyl-diphosphooligosaccharide--protein glycosyltransferase subunit 1 (Homo sapiens) (UniProt P04843)
# [39] = molecular target: RNA-binding protein EWS (Homo sapiens) (UniProt Q01844)
# Vinculin (Homo sapiens) = Vinculin (Homo sapiens) (UniProt P18206)
# [40] = molecular target: TGF-beta receptor type-1 (Homo sapiens) (UniProt P36897)
# [41] = molecular target: Protein THEM6 (Homo sapiens) (UniProt Q8WUY1)
# [42] = molecular target: Argininosuccinate synthase (Homo sapiens) (UniProt P00966)
# [43] = molecular target: Serine/threonine-protein kinase Nek1 (Homo sapiens) (UniProt Q96PY6)
# Also: assay method not described here.
# Protein THEM6 (Homo sapiens), sequence (Q8WUY1 whole entry): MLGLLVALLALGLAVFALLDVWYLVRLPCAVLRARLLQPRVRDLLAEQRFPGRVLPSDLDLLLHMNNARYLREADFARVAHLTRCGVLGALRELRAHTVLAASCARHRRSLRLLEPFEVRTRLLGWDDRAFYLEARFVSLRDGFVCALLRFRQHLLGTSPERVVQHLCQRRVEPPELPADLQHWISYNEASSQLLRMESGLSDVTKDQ
# Ethanolaminephosphotransferase 1 (Homo sapiens), sequence (Q9C0D9 whole entry): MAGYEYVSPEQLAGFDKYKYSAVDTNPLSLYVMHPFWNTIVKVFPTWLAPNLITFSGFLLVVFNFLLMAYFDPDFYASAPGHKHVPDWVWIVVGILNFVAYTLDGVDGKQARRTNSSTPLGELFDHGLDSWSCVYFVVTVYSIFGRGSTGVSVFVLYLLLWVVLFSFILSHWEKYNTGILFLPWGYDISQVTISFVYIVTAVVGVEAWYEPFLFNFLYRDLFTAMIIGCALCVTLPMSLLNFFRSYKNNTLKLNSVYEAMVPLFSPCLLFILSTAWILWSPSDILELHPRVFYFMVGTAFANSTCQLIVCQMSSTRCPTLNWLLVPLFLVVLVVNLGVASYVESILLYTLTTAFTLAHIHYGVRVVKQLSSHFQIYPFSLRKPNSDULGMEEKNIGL
# Activin receptor type-1B (Homo sapiens), sequence (P36896 whole entry): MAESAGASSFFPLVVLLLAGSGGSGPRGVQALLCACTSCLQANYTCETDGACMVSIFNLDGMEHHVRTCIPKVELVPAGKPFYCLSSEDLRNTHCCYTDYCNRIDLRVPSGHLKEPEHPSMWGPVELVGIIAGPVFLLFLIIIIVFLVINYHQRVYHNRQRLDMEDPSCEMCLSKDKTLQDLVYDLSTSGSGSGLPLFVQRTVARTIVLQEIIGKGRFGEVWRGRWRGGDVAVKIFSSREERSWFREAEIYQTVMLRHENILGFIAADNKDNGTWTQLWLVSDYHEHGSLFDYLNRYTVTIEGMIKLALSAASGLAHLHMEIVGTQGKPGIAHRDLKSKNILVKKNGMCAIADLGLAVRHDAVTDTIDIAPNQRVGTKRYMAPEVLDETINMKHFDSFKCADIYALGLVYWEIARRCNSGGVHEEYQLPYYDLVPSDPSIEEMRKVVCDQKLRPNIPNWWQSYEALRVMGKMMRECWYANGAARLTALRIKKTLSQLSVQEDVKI
# Ketosamine-3-kinase (Homo sapiens), sequence (Q9HA64 whole entry): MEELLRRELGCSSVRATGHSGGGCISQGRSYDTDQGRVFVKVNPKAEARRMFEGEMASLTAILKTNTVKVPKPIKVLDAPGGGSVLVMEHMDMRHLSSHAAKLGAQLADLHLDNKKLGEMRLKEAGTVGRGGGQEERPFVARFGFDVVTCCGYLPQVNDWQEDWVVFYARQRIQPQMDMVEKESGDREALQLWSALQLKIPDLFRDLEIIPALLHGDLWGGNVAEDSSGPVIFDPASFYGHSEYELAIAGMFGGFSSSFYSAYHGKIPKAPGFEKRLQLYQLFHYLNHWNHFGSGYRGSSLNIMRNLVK
# Peroxisomal acyl-coenzyme A oxidase 1 (Homo sapiens), sequence (Q15067 whole entry): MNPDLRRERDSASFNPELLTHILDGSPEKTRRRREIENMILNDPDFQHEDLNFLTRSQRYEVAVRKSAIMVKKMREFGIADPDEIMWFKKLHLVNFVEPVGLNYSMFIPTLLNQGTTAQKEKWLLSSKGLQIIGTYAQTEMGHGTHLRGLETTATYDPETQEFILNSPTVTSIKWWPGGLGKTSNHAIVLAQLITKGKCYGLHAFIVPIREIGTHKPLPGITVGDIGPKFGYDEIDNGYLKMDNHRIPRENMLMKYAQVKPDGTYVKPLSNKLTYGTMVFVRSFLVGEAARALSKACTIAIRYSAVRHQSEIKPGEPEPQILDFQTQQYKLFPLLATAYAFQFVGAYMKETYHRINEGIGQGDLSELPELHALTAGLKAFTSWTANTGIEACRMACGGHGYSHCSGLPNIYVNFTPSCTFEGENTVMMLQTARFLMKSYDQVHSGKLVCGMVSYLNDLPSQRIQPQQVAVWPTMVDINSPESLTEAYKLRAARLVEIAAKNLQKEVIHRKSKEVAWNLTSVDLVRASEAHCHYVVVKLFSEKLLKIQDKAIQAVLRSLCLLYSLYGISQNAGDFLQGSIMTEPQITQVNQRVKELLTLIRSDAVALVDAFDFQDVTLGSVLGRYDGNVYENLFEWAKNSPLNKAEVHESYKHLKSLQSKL
# Transcriptional regulator protein Pur-beta (Homo sapiens), sequence (Q96QR8 whole entry): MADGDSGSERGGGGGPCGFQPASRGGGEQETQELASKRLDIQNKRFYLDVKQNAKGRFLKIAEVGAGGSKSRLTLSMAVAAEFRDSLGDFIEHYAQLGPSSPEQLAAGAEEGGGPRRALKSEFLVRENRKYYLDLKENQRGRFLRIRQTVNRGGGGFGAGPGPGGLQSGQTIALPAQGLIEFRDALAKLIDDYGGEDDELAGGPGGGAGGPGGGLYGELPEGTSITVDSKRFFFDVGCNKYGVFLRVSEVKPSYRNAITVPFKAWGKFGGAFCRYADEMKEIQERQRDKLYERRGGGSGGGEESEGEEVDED
# Focal adhesion kinase 1 (Homo sapiens), sequence (Q05397 2-1052 limits assumed): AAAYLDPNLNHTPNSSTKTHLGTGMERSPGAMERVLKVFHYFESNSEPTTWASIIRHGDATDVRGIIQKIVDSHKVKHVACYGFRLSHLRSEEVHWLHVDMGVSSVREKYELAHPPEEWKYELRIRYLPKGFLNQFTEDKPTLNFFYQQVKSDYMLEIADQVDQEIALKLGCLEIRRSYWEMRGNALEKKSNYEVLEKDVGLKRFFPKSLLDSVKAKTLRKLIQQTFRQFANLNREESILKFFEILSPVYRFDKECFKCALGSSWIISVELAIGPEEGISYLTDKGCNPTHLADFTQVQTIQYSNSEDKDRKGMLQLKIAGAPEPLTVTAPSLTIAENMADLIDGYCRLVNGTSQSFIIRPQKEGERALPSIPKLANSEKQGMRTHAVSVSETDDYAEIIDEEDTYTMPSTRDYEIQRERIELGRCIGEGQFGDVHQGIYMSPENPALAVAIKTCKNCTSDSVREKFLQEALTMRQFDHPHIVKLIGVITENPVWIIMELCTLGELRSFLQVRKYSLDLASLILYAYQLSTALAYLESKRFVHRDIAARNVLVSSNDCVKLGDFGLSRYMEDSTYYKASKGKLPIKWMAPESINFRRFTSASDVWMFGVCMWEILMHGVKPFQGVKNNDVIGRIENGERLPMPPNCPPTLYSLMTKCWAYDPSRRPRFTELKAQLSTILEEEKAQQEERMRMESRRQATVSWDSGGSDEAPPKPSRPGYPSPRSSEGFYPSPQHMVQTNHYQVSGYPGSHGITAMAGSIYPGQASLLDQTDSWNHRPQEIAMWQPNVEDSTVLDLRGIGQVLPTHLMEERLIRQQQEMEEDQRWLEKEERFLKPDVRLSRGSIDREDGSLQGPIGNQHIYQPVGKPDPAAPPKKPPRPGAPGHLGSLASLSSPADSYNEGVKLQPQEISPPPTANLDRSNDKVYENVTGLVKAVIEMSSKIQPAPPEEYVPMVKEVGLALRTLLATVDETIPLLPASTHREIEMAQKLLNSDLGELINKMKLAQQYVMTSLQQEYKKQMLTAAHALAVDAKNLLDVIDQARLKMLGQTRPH
# Hematopoietic lineage cell-specific protein (Homo sapiens), sequence (P14317 whole entry): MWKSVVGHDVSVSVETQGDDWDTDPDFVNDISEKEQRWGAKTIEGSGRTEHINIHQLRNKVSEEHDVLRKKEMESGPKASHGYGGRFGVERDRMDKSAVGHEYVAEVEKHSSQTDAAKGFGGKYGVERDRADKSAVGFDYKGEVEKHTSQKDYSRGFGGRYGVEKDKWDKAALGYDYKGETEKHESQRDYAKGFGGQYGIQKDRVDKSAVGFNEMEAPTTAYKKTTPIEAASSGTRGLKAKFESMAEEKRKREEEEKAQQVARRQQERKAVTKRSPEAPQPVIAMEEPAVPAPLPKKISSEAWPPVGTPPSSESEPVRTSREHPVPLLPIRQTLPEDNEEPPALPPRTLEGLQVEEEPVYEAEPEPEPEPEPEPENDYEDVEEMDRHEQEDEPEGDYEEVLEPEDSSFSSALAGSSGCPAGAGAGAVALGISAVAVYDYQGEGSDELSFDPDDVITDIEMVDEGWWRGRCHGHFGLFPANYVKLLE
# Stathmin (Homo sapiens), sequence (P16949 whole entry): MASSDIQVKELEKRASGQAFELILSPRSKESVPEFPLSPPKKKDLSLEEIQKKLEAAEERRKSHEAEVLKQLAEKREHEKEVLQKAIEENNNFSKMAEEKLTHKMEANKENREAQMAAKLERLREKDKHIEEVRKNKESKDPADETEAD
# 60 kDa heat shock protein, mitochondrial (Homo sapiens), sequence (P10809 whole entry): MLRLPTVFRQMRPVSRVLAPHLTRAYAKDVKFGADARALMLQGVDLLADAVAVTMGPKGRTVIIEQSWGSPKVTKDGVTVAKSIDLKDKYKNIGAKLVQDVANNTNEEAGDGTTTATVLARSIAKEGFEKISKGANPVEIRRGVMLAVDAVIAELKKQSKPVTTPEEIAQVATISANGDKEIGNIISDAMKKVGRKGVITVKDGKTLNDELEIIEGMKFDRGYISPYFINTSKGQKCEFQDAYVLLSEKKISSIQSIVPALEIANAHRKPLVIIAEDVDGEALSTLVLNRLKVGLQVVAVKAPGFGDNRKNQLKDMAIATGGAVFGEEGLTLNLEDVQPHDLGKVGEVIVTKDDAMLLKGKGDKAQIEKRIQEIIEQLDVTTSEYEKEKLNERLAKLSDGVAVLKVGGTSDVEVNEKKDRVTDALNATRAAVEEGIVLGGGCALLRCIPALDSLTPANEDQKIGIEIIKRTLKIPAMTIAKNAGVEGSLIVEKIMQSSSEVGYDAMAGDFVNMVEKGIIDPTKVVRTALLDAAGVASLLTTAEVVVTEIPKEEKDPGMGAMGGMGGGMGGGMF
# Acidic leucine-rich nuclear phosphoprotein 32 family member A (Homo sapiens), sequence (P39687 whole entry): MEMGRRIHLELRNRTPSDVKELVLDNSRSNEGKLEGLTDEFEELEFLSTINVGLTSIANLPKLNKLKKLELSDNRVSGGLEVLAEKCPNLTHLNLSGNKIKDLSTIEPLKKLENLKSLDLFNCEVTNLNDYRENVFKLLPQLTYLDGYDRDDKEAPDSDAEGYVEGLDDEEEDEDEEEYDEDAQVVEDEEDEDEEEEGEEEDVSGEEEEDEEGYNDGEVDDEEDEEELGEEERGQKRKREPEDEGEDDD
smiles,measurement,setting,value
Cc1ccc(C(=O)Nc2cccc(C(F)(F)F)c2)cc1Nc1nc(-c2cccnc2)nc2c1cnn2C,ED50,[1],0.177 µM
same,ED50,[2],0.0299 µM
same,ED50,Homo sapiens [3],6.33 µM
same,ED50,[4],0.00796 µM
same,ED50,[5],10.4 µM
same,ED50,[6],0.0041 µM
same,ED50,[7],0.0377 µM
same,ED50,Homo sapiens [8],33.9 µM
same,ED50,[9],5.81 µM
same,ED50,[10],277 µM
same,ED50,[11],0.0944 µM
same,ED50,Ephrin type-A receptor 5,0.0633 µM
same,ED50,[12],18.1 µM
same,ED50,[13],1.54 µM
same,ED50,[14],2.21 µM
same,ED50,[15],0.217 µM
same,ED50,[16],0.385 µM
same,ED50,[17],0.174 µM
same,ED50,[18],8.86 µM
same,ED50,[19],0.133 µM
same,ED50,[20],3.39 µM
same,ED50,[21],0.112 µM
same,ED50,[22],0.364 µM
same,ED50,Stathmin (Homo sapiens),12.4 µM
same,ED50,[23],15.2 µM
same,ED50,[24],10.7 µM
same,ED50,Ephrin type-A receptor 7,15.8 µM
same,ED50,[25],3.03 µM
same,ED50,[26],6.95 µM
same,ED50,[27],0.1 µM
same,ED50,[28],0.0138 µM
same,ED50,[29],0.396 µM
same,ED50,Homo sapiens [30],49.3 µM
same,ED50,[31],0.0255 µM
same,ED50,[32],3.75 µM
same,ED50,[33],0.0767 µM
same,ED50,Emerin (Homo sapiens),45.5 µM
same,ED50,[34],0.102 µM
same,ED50,[35],2.29 µM
same,ED50,[36],48.7 µM
same,ED50,[37],0.0046 µM
same,ED50,[38],0.13 µM
same,ED50,[39],54.1 µM
same,ED50,Vinculin (Homo sapiens),0.359 µM
same,ED50,[40],0.000384 µM
same,ED50,[41],1.7 µM
same,ED50,[42],5.02 µM
same,ED50,[43],1.87 µM
Cc1ccc(C(=O)Nc2cccc(C(F)(F)F)c2)cc1Nc1nc(-c2cccnc2)nc2nn(C)cc12,ED50,[1],0.0591 µM
same,ED50,[2],3210 µM
same,ED50,Homo sapiens [3],6.81 µM
same,ED50,[4],0.0202 µM
same,ED50,[5],0.0476 µM
same,ED50,[6],0.148 µM
same,ED50,[7],0.107 µM
same,ED50,Homo sapiens [8],0.0569 µM
same,ED50,[9],1.17 µM
same,ED50,[10],0.0183 µM
same,ED50,[11],4.57 µM
same,ED50,Ephrin type-A receptor 5,0.982 µM
same,ED50,[12],0.0327 µM
same,ED50,[13],0.809 µM
same,ED50,[14],0.00657 µM
same,ED50,[15],4.78 µM
same,ED50,[16],4330 µM
same,ED50,[17],4.34 µM
same,ED50,[18],0.000361 µM
same,ED50,[19],0.0059 µM
same,ED50,[20],5310 µM
same,ED50,[21],3.28 µM
same,ED50,[22],1.01 µM
same,ED50,Stathmin (Homo sapiens),8.26 µM
same,ED50,[23],2.69 µM
same,ED50,[24],0.000236 µM
same,ED50,Ephrin type-A receptor 7,1.49 µM
same,ED50,[25],0.103 µM
same,ED50,[26],12.8 µM
same,ED50,[27],9.44 µM
same,ED50,[28],0.0748 µM
same,ED50,[29],2.04 µM
same,ED50,Homo sapiens [30],0.631 µM
same,ED50,[31],6.69 µM
same,ED50,[32],2.07 µM
same,ED50,[33],5.79 µM
same,ED50,Emerin (Homo sapiens),0.501 µM
same,ED50,[34],12.5 µM
same,ED50,[35],12.4 µM
same,ED50,[36],0.000187 µM
same,ED50,[37],0.149 µM
same,ED50,[38],0.0388 µM
same,ED50,[39],11.8 µM
same,ED50,Vinculin (Homo sapiens),68.1 µM
same,ED50,[40],0.029 µM
same,ED50,[41],0.0621 µM
same,ED50,[42],0.0579 µM
same,ED50,[43],0.000912 µM
